Data from paper PMC6009868, “Synthesis and bioactivity of several new hetaryl sulfonamides” (Journal of Enzyme Inhibition and Medicinal Chemistry, 2017).

assay: Metal chelating activity (Fe2+-ferrozine, 562 nm); conditions: absorbance at 562 nm
Protocol: Metal chelating capacity of hetaryl sulfonamides 1–12 was determined according to Dinis et al.[60]. […] Simultaneously, to a mixture of FeCl2 (0.1 mL, 0.6 mM), three concentrations (10–30 µg/mL) of hetaryl sulfonamides 1–12 in ethanol (0.4 mL) were added. The activities were initiated by the addition of ferrozine molecules (0.1 mL, 5 mM). Additionally, the reaction was mixed and maintained in a dark room for 10 min.

| Structure (SMILES) | Fe^2+ chelating (IC50) [µg/mL] |
| --- | --- |
| COc1ccc(O)c(C(C)(C)C)c1 [BHA] | 46.20 |
| Cc1cc(C(C)(C)C)c(O)c(C(C)(C)C)c1 [BHT] | 76.96 |
| O=C(O)CN(CCN(CC(=O)O)CC(=O)O)CC(=O)O [EDTA] | 9.36 |
| Cc1c(C)c2c(c(C)c1O)CCC(C)(C(=O)O)O2 (centres unmarked) [Trolox] | 31.13 |
| Cc1c(C)c2c(c(C)c1O)CC[C@@](C)(CCC[C@H](C)CCC[C@H](C)CCCC(C)C)O2 [α-Tocopherol] | 40.76 |
